Results from BindingDB's records for doi:10.1002/cmdc.200500017 (2006).

Biological target: T1, Fatty-acid amide hydrolase 1 [30-579] (Rattus norvegicus, UniProt P97612)
T1 construct: 30-579
T1 sequence (P97612 whole entry): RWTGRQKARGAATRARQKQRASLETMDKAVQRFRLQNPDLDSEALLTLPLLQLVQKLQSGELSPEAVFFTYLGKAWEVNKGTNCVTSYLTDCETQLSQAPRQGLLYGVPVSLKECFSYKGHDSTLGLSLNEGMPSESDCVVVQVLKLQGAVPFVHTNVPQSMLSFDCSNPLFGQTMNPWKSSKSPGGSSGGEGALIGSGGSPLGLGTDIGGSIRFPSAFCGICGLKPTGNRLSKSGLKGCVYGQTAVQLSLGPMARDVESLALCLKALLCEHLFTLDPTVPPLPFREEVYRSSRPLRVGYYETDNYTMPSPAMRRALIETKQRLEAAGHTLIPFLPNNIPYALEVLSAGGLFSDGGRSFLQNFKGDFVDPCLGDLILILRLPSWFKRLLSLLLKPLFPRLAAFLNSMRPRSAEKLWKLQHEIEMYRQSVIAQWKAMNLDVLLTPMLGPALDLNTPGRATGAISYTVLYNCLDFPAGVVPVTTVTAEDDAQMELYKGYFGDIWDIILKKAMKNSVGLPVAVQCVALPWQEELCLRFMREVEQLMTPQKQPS
Assay: FAAH Inhibition Assay
Experimental: Membrane fractions were prepared from Wistar rat brain homogenates, and FAAH activity were assayed by using [3H]anandamide (anandamide[ethanolamine-3H], 60 Cimmol-1, from American Radiolabeled Chemicals, St. Louis, USA) as a substrate.

SMILES	IC50 [µM]
O=C(NC1CCCCC1)Oc1ccc(CO)c(-c2ccccc2)c1 [FAAH Inhibitor, 2h]	0.046
Nc1ccc(OC(=O)NC2CCCCC2)cc1-c1ccccc1 [FAAH Inhibitor, 2d]	0.052
O=C(NC1CCCCC1)Oc1ccc([N+](=O)[O-])c(-c2ccccc2)c1 [FAAH Inhibitor, 2c]	> 30
Cc1ccc(OC(=O)NC2CCCCC2)cc1-c1ccccc1 [FAAH Inhibitor, 2f]	0.176
O=C(NC1CCCCC1)Oc1cccc(Oc2cccc(-c3ccccc3)c2)c1 [FAAH Inhibitor, 2l]	2.74
O=C(NC1CCCCC1)Oc1ccc2ccn(-c3ccccc3)c2c1 [FAAH Inhibitor, 2k]	1.03
O=C(NC1CCCCC1)Oc1ccc(O)c(-c2ccccc2)c1 [FAAH Inhibitor, 2g]	0.045
O=C(NC(=O)c1ccc(OC(=O)NC2CCCCC2)cc1-c1ccccc1)NC1CCCCC1 [FAAH Inhibitor, 2j]	2.74
O=C(NC1CCCCC1)Oc1cc(-c2ccccc2)ccc1[N+](=O)[O-] [FAAH Inhibitor, 2a]	> 30
Nc1ccc(-c2ccccc2)cc1OC(=O)NC1CCCCC1 [FAAH Inhibitor, 2b]	4.83
CN(C)c1ccc(OC(=O)NC2CCCCC2)cc1-c1ccccc1 [FAAH Inhibitor, 2i]	1.59
NC(=O)c1ccc(OC(=O)NC2CCCCC2)cc1-c1ccccc1 [FAAH Inhibitor, 2e]	0.252
